# Laboratory results taken from patent US8822513B2, “Compounds for treatment of cancer” (GTX, Inc., priority 2010, dated 2014).
# Where two headings read alike, the source gives them in different places.
# How the values were obtained:
# PC-3 cells = conditions: 96 h
# Text: (§1) Cells were stained with SRB solution.
# Cells were stained with sulphorhodamine B (SRB) solution.
# [1] = system: three melanoma cell lines and four human prostate cancer cell lines; test: SRB cytotoxicity, melanoma and prostate cancer cell lines (ranges and averages over the panel); assay type: cell-based; conditions: for antiproliferative activity (in words): Tables 1-3
# B16-F1 melanoma cells = test: B16-F1 melanoma colony formation assay in soft agar; assay type: cell-based, mouse; conditions: 14 days; tested 20, 100, 500 nM
# Method: B16-F1 melanoma cells were plated at a colony-forming density (2000 cells per well on six-well plates) on top of 0.8% base agar. Cells were grown in 0.4% agar together with DMEM medium supplemented with fetal bovine serum and an antibiotic-antimycotic solution at 37° C. in an atmosphere of 95% air and 5% CO2. […] Compounds were added to the media from 1 mM DMSO stock solutions, and a corresponding dilution of DMSO was used as control. Cells were grown for 14 days. Plates were photographed, and the number of colonies was measured by Artek 880 Automated Colony Counter (Artek Systems Corporation, Farmingdale, N.Y.).
# LNCaP cells = test: SRB cytotoxicity assay, LNCaP; assay type: cell-based, human; conditions: read-out: IC50 ± SEM LNCaP
# Text: as §1
# DU 145 cells = test: SRB cytotoxicity assay, DU 145; assay type: cell-based, human; conditions: Table 12; 96 h; read-out: IC50 ± SEM Du 145
# Text: as §1
# PPC-1 cells = conditions: read-out: IC50 ± SEM PPC-1; Table 12; 96 h
# Text: as §1
# PC-3/TxR xenografts = assay type: in vivo; conditions: for Tumor size Start: PC-3/TxR xenograft
# [2] = Metabolic stability in mouse liver microsomes; assay type: in vitro ADME; conditions: Table 20
# [3] = Metabolic stability in rat liver microsomes; assay type: in vitro ADME; conditions: Table 20
# [4] = Metabolic stability in dog liver microsomes; assay type: in vitro ADME; conditions: Table 20
# [5] = Metabolic stability in monkey liver microsomes; assay type: in vitro ADME; conditions: Table 20
# [6] = Metabolic stability in human liver microsomes; conditions: for Half life in Human liver microsome: Table 20
# [7] = system: tubulin (colchicine, vinblastine, paclitaxel binding sites); test: MS competitive binding assay
# Text: Each reaction was run in triplicate.
# HUVEC monolayers = test: Endothelial monolayer permeability assay (FITC-dextran, transwell); conditions: 1, 2, 4 h
# [8] = system: microtubules in WM-164 melanoma cells; test: Microtubule imaging (immunofluorescence), WM-164; assay type: cell-based, human; conditions: 18 h
# A375 melanoma xenografts = test: In vivo efficacy, A375 melanoma xenograft in nude mice (SMART compounds); design: species or system mouse; conditions: Melanoma (A375) xenograft, 20 mg/kg i.p.
# A375 melanoma cells = test: SRB cytotoxicity assay, A375; assay type: cell-based, human; conditions: Table 6; read-out: IC50 ± SEM A375
# [9] = average of all seven cell lines, read-out: average IC50
# [10] = read-out: IC50 ± SEM PC-3, Table 12
smiles,measurement,setting,value
"O=S(=O)(c1ccccc1)n1ccnc1-c1ccc(OCc2ccccc2)cc1 [10j, 2-(4-(benzyloxy)phenyl)-1-(phenylsulfonyl)-1H-imidazole]",IC50,"PC-3 cells; read-out: IC50 PC-3, Table 11",> 10 µM
"COc1cc(/C=C\c2csc(-c3ccccc3)n2)cc(OC)c1OC [3a, (Z)-2-Phenyl-4-(3,4,5-trimethoxystyryl)thiazole]",antiproliferative activity (in words),[1],lost activity
"O=C(c1cccc(F)c1)c1c[nH]c(-c2ccccc2)n1 [12ag, (3-fluorophenyl)(2-phenyl-1H-imidazol-4-yl)methanone]",IC50,"PC-3 cells; read-out: IC50 PC-3, Table 11",> 10 µM
"O=C(c1ccc(F)cc1)c1c[nH]c(-c2ccc(Cl)cc2)n1 [12fb, (2-(4-chlorophenyl)-1H-imidazol-4-yl)(4-fluorophenyl)methanone]",lowest tested concentration with effective inhibition of colony formation,B16-F1 melanoma cells,100 nM
"O=C(c1ccc(F)cc1)c1c[nH]c(-c2ccccc2C(F)(F)F)n1 [12ib, (4-fluorophenyl)(2-(2-(trifluoromethyl)phenyl)-1H-imidazol-4-yl)methanone]",IC50,[1]; [9],> 10 µM
"COc1cc(C(=O)c2c[nH]c(-c3cc(OC)c(OC)c(OC)c3)n2)cc(OC)c1OC [12ea, (3,4,5-trimethoxyphenyl)(2-(3,4,5-trimethoxyphenyl)-1H-imidazol-4-yl)methanone]",IC50,"LNCaP cells; Table 12, 96 h",> 10 µM
same,IC50,PC-3 cells; [10],> 10 µM
same,IC50,DU 145 cells,> 10 µM
same,IC50,PPC-1 cells,> 10 µM
same,IC50,[1]; [9],> 10 µM
"CC(=O)O[C@@]12CO[C@@H]1C[C@H](O)[C@@]1(C)C(=O)[C@H](O)C3=C(C)[C@@H](OC(=O)[C@H](O)[C@@H](NC(=O)OC(C)(C)C)c4ccccc4)C[C@@](O)([C@@H](OC(=O)c4ccccc4)[C@H]21)C3(C)C [Docetaxel, reference compound]",Tumor size Start,"PC-3/TxR xenografts; IV 10 mpk, day 1 and 9, end point day 19",143 ± 20 mm^3
"Fc1ccc(-c2nccc3ccc(-c4ccc5[nH]ccc5c4)cc23)cc1 [6c, 1-(4-Fluoro-phenyl)-7-(1H-indol-5-yl)-isoquinoline]",Half life in Mouse liver microsome,[2],13 min
same,Half life in Rat liver microsome,[3],14 min
same,Half life in Dog liver microsome,[4],29 min
same,Half life in Monkey liver microsome,[5],9 min
same,Half life in Human liver microsome,[6],47 min
"COc1ccc(C(=O)c2c[nH]c(-c3ccccc3)n2)cc1OC [12ae, (3,4-dimethoxyphenyl)(2-phenyl-1H-imidazol-4-yl)methanone]",IC50,"PC-3 cells; read-out: IC50 PC-3, Table 11",> 10 µM
"COc1cc(C(=O)c2csc(Nc3ccc4[nH]ccc4c3)n2)cc(OC)c1OC [compound 55, (2-(1H-indol-5-yl amino)thiazol-4-yl)(3,4,5-trimethoxyphenyl)methanone]",competition with colchicine-tubulin binding,[7],competed effectively with colchicine
same,Tumor size Start,"PC-3/TxR xenografts; PO 10 mpk, b.i.d × 5/w, end point day 26",143 ± 44 mm^3
same,Tumor size Start,"PC-3/TxR xenografts; PO 30 mpk, b.i.d × 5/w, end point day 26",134 ± 34 mm^3
same,TGI,"PC-3/TxR xenografts; p.o. 30 mg/kg b.i.d., five times a week, day 19 to 26",> 100%
same,Half-life in HLM (Phase I),"[6]; Table 16B, Phase I",30 min
same,Half-life in HLM (Phase I + II),"[6]; Table 16B, Phase I + II (UDP-glucuronic acid present)",43 min
same,permeability of endothelial cell monolayer,HUVEC monolayers,increased permeability
COc1cc(C(=O)c2csc(-c3cc(F)c(F)c(F)c3)n2)cc(OC)c1OC [2p],IC50,LNCaP cells; Table 6,> 10 µM
"COc1cc(C(=O)c2csc(-c3ccc(CN(C)C)cc3)n2)cc(OC)c1OC.Cl [2u, (2-(4-((Dimethylamino)methyl)phenyl)thiazol-4-yl)(3,4,5-trimethoxyphenyl)methanone hydrochloride]",antiproliferative activity (in words),[1],abrogated activity
"COc1ccc(/C=C\c2cc(OC)c(OC)c(OC)c2)cc1O [CA4, Combretastatin A-4]",permeability of endothelial cell monolayer,HUVEC monolayers,increased permeability
"COc1cc(C(=O)c2c[nH]c(-c3ccc(C)cc3)n2)cc(OC)c1OC [12da, (2-(p-tolyl)-1H-imidazol-4-yl)(3,4,5-trimethoxyphenyl)methanone]",lowest tested concentration with effective inhibition of colony formation,B16-F1 melanoma cells,20 nM
same,effect on microtubules,[8],microtubule fragmentation
"O=C(c1cc(O)c(O)c(O)c1)c1c[nH]c(-c2ccc(Cl)cc2)n1 [13fa, (2-(4-chlorophenyl)-1H-imidazol-4-yl)(3,4,5-trihydroxyphenyl)methanone]",IC50,PPC-1 cells,> 10 µM
"O=C(c1ccc(F)cc1)c1c[nH]c(-c2ccc(OCc3ccccc3)cc2)n1 [12jb, (2-(4-(benzyloxy)phenyl)-1H-imidazol-4-yl)(4-fluorophenyl)methanone]",increase in activity compared with 12kb,[1],440 fold
"O=S(=O)(c1ccccc1)n1ccnc1-c1ccccc1 [10a, 2-phenyl-1-(phenylsulfonyl)-1H-imidazole]",IC50,"PC-3 cells; read-out: IC50 PC-3, Table 11",> 10 µM
"COc1cc(C(=O)[C@H]2COC(c3ccccc3)=N2)cc(OC)c1OC [35a, (2R)-(2-Phenyl-4,5-dihydro-oxazol-4-yl)-(3,4,5trimethoxy-phenyl)-methasone]",antiproliferative activity (in words),[1],hundreds of nanomolar range
"COc1cc(C(=O)c2cccc(-c3ccccc3)c2)cc(OC)c1OC [1a, Biphenyl-3-yl(3,4,5-trimethoxyphenyl)methanone]",antiproliferative activity (in words),[1],hundreds of nanomolar range
"O=[N+]([O-])c1ccc(-c2nccn2S(=O)(=O)c2ccccc2)cc1 [10x, 2-(4-nitrophenyl)-1-(phenylsulfonyl)-1H-imidazole]",IC50,"PC-3 cells; read-out: IC50 PC-3, Table 11",> 10 µM
"COc1ccc(C(=O)n2ccnc2-c2ccccc2)cc1 [12aba, (4-methoxyphenyl)(2-phenyl-1H-imidazol-1-yl)methanone]",IC50,"PC-3 cells; read-out: IC50 PC-3, Table 11",> 10 µM
COc1cc(C(=O)c2csc(-c3ccccc3)n2)cc(OC)c1OC [SMART-H],T-C,A375 melanoma xenografts,10 days
same,Total log cell kill,A375 melanoma xenografts; doubling time 4.6 d,0.7
"COc1cc(C(=O)c2c[nH]c(-c3ccc(Br)cc3)n2)cc(OC)c1OC [12la, (2-(4-bromophenyl)-1H-imidazol-4-yl)(3,4,5-trimethoxyphenyl)methanone]",IC50,"[1]; Homo sapiens, text on Tables 1, 2, 13, read-out: IC50 (range over cell lines)",1 to 50 µM
"COc1cc(C(O)c2csc(-c3ccccc3)n2)cc(OC)c1OC (stereo not drawn) [2b, (2-Phenylthiazol-4-yl)(3,4,5-trimethoxyphenyl)methanol]",antiproliferative activity (in words),[1],inactive
COc1cccc2c1C(=O)c1c(O)c3c(c(O)c1C2=O)C[C@@](O)(C(=O)CO)C[C@@H]3O[C@H]1C[C@H](N)[C@H](O)[C@H](C)O1 [Doxorubicin],permeability of endothelial cell monolayer,HUVEC monolayers,did not induce any change
COc1cc(C(=O)c2csc(-c3ccc(CC(N)=O)cc3)n2)cc(OC)c1OC [2q],IC50,LNCaP cells; Table 6,> 10 µM
same,IC50,A375 melanoma cells,> 20 µM
"COc1cc(C(=O)c2coc(-c3ccccc3)n2)cc(OC)c1OC [36a, (2-Phenyl-oxazol-4-yl)-(3,4,5-trimethoxy-phenyl)-methanone]",antiproliferative activity (in words),[1],hundreds of nanomolar range
"CNCc1ccc(-c2nc(C(=O)c3cc(OC)c(OC)c(OC)c3)cs2)cc1.Cl [2s, (2-(4-((Methylamino)methyl)phenyl)thiazol-4-yl)(3,4,5-trimethoxyphenyl)methanone hydrochloride]",antiproliferative activity (in words),[1],abrogated activity
"COc1cc(-c2nc(C(=O)c3ccc(F)cc3)c[nH]2)cc(OC)c1OC [12eb, (4-fluorophenyl)(2-(3,4,5-trimethoxyphenyl)-1H-imidazol-4-yl)methanone]",IC50,"LNCaP cells; Table 12, 96 h",> 10 µM
same,IC50,PC-3 cells; [10],> 10 µM
same,IC50,DU 145 cells,> 10 µM
same,IC50,PPC-1 cells,> 10 µM
same,IC50,[1]; [9],> 10 µM
"COc1cc(C(=O)n2ccnc2-c2ccccc2)cc(OC)c1OC [12aaa, (2-phenyl-1H-imidazol-1-yl)(3,4,5-trimethoxyphenyl)methanone]",IC50,"PC-3 cells; read-out: IC50 PC-3, Table 11",> 10 µM
"O=C(c1cc(O)c(O)c(O)c1)c1c[nH]c(-c2cc(O)c(O)c(O)c2)n1 [13ea, (3,4,5-trihydroxyphenyl)(2-(3,4,5-trihydroxyphenyl)-1H-imidazol-4-yl)methanone]",IC50,"LNCaP cells; Table 12, 96 h",> 10 µM
same,IC50,PC-3 cells; [10],> 10 µM
same,IC50,DU 145 cells,> 10 µM
same,IC50,PPC-1 cells,> 10 µM
"COc1cc(/C(=N/O)c2csc(-c3ccccc3)n2)cc(OC)c1OC [2e-cis, (Z)-(2-Phenylthiazol-4-yl)(3,4,5-trimethoxyphenyl)methanone oxime]",fold more activity than anti-isomer 2e-trans,[1],10 fold
same,Half life in Human liver microsome,[6],35 min
"COc1ccc(S(=O)(=O)Nc2cccnc2Nc2ccc(O)cc2)cc1 [ABT-751, reference compound]",effect on microtubules,[8],microtubule fragmentation
"COc1ccc(-c2nc(C(=O)c3ccc(F)cc3)c[nH]2)cc1 [12cb, (4-fluorophenyl)(2-(4-methoxyphenyl)-1H-imidazol-4-yl)methanone]",lowest tested concentration with effective inhibition of colony formation,B16-F1 melanoma cells,20 nM
same,effect on microtubules,[8],microtubule fragmentation
